According to patent publication US11174518B2, “Method of classifying and diagnosing cancer” (Cedars-Sinai Medical Center, priority 2015, dated 2021):

System: circulating tumor cells (CTC) from patients with CRPC
Experiment: Enzalutamide resistance of patient CTCs assigned to PCS subtypes by the 37-gene classifier
Assay type: in vivo, human
Details: for Enzalutamide resistance / Enzalutamide resistance: proportion of CTCs from patients with enzalutamide-resistant tumors: patient CTCs
From the text: A random forest machine learning algorithm was employed to develop a diagnostic gene panel. For parameter estimation and training the model, we used the merged dataset. Initially, the model comprised of the 428 SEGs as a set of predictors and subtype label of the merged dataset was used as a response variable for model training. […] We then permuted the values for each gene across every sample and measured how much worse MSE became after the permutation. […] We analyzed single-cell RNA-seq data from 77 intact CTCs isolated from 13 patients (Miyamoto D T, Zheng […], Lee R J, Zhu H, Broderick K T, et al. RNA-Seq of single prostate CTCs implicates noncanonical Wnt signaling in antiandrogen resistance. Science 2015; 349:1351-6). Prior to the clustering analysis to investigate the expression patterns of these CTC data, the normalized read counts as read-per-million (RPM) mapped reads were transformed on a log 2 scale for each gene.

CNC(=O)c1ccc(N2C(=S)N(c3ccc(C#N)c(C(F)(F)F)c3)C(=O)C2(C)C)cc1F [Enzalutamide, enzalutamide]
OR for CTCs from patients with radiographic and/or PSA progression during enzalutamide therapy (GROUP II CTCs (high expression of PCS1-enriched genes), 5 of the 7 CTCs, 95% confidence interval 0.49-6.06): 1.74 | Enzalutamide resistance (PCS1 subtype): Yes | Enzalutamide resistance: proportion of CTCs from patients with enzalutamide-resistant tumors (PCS1 subtype (7 CTCs out of 12)): 58% | Enzalutamide resistance (PCS2 subtype): No | Enzalutamide resistance: proportion of CTCs from patients with enzalutamide-resistant tumors (PCS2 subtype (5 CTCs out of 65)): 8%
